Test results as given in US11548893B2 (priority 2017, dated 2023).
Read-outs that look alike come from different tables or passages of the source.

Key:
[1] = test system: BDBV (mucin-deleted glycoprotein, VSV pseudotype); experiment: microbe, parasite or virus in culture; type: cell-based, Bundibugyo ebolavirus; conditions: Vesicular stomatitis virus, Vero, 24 h, read-out: EC50 Pseudotype Assays BDBV
[2] = test system: MARV (full-length glycoprotein, VSV pseudotype); experiment: microbe, parasite or virus in culture; type: cell-based, Marburg marburgvirus; conditions: for EC50: Vesicular stomatitis virus, Vero, 24 h, read-out: EC50 Pseudotype Assays MARV
[3] = test system: EBOV_FL: full-length Ebola Zaire GP (VSV pseudotype); experiment: microbe, parasite or virus in culture; type: cell-based, Zaire ebolavirus; conditions: Zaire ebolavirus, Vero, 24 h, read-out: EC50 Pseudotype Assays EBOV_FL
[4] = test system: SUDV (glycoprotein, VSV pseudotype); experiment: microbe, parasite or virus in culture; type: cell-based, Sudan ebolavirus; conditions: Vesicular stomatitis virus, Vero, 24 h, read-out: EC50 Pseudotype Assays SUDV
in vitro = conditions: African green monkey, Cytotox CC50
[5] = test system: EBOV (mucin-deleted glycoprotein, VSV pseudotype); experiment: microbe, parasite or virus in culture; type: cell-based, Zaire ebolavirus; conditions: read-out: EC50 Pseudotype Assays EBOV

| Structure (SMILES) | EC50 [1] [µM] | EC50 [2] [µM] | EC50 [3] [µM] | EC50 [4] [µM] | CC50 (in vitro) [µM] | EC50 [5] [µM] | EC50 ([5]; Zaire ebolavirus, Vero, 24 h) [µM] | fold more potent against Marburgvirus infection compared to the opposite enantiomer [2] [fold] |
| --- | --- | --- | --- | --- | --- | --- | --- | --- |
| CCC12CC3CC(C(=O)N[C@@H]4CCNC[C@H]4F)(C1)CC(c1ccccc1)(C3)C2 (mixture of isomers) [Example A17] | 0.125 | 5.91 | 0.025 | 0.255 | 6 | 0.039 |  |  |
| CCC12CC3CC(C(=O)N[C@H]4CCNC[C@@H]4F)(C1)CC(c1ccccc1)(C3)C2 (mixture of isomers) [Example A19] | 0.261 | 3.44 | 0.04 | 0.465 | 7.3 |  | 0.023 |  |
| CCC12CC3CC(C(=O)NC4CCNCC4(C)C)(C1)CC(c1ccccc1)(C3)C2 (racemic) [Example A20] | 0.135 | 1.57 | 0.03 | 0.33 | 5.7 |  | 0.042 |  |
| CC12CC3CC(C(=O)NC4CC5CNC4C5)(C1)CC(c1ccccc1)(C3)C2 (racemic) [Example A30] | 0.7 | 5 |  | 0.8 | 30 |  | 0.25 |  |
| CC12CC3CC(C(=O)NC4CC5CC4CN5)(C1)CC(c1ccccc1)(C3)C2 (racemic) [Example A31] | > 1 | > 1 |  | > 1 | 26 |  | > 1 |  |
| CC12CC3CC(C(=O)N4CCC(N)CC4)(C1)CC(c1ccccc1)(C3)C2 (racemic) [Example A33] | 0.069 |  | 0.2 | 0.3 | 13.7 |  | 0.05 |  |
| CC12CC3CC(C(=O)N4CCC5(CCCN5)CC4)(C1)CC(c1ccccc1)(C3)C2 (racemic) [Example A38] | 0.104 |  | 0.07 | 0.13 | 6.91 |  | 0.04 |  |
| CC12CC3CC(C(=O)N4CC5(CCNCC5)C4)(C1)CC(c1ccccc1)(C3)C2 (racemic) [Example A44] | 0.075 |  |  | 0.245 | 27.2 |  | 0.045 |  |
| CC12CC3CC(C(=O)N4C[C@H]5CNC[C@H]5C4)(C1)CC(c1ccccc1)(C3)C2 (mixture of isomers) [Example A45] | 0.301 |  |  | 0.33 | 30.6 |  | 0.205 |  |
| CC12CC3CC(C(=O)N4CCC(N)(CO)CC4)(C1)CC(c1ccccc1)(C3)C2 (racemic) [Example A46] | 0.048 |  |  | 0.09 | 12.2 |  | 0.041 |  |
| CC12CC3CC(C(=O)N4CC5(CNC5)C4)(C1)CC(c1ccccc1)(C3)C2 (racemic) [Example A47] | 0.238 |  |  | 0.335 | 42.3 |  | 0.065 |  |
| CC12CC3CC(C(=O)N4CC5(CCNC5)C4)(C1)CC(c1ccccc1)(C3)C2 (racemic) [Example A49] | 0.109 |  | 0.19 | 0.2 | 21.9 |  | 0.023 |  |
| CC12CC3CC(C(=O)N4CCC5(CCNCC5)CC4)(C1)CC(c1ccccc1)(C3)C2 (racemic) [Example A50] | 0.09 |  |  | 0.16 | 8.78 |  | 0.061 |  |
| CC12CC3CC(C(=O)N4CC[C@H](N)C4)(C1)CC(c1ccccc1)(C3)C2 (mixture of isomers) [Example A54] | 0.2 |  |  | 0.35 | 11.3 |  | 0.12 |  |
| CC12CC3CC(C(=O)N4CC[C@@H](N)C4)(C1)CC(c1ccccc1)(C3)C2 (mixture of isomers) [Example A55] | 0.16 |  |  | 0.37 | 12.6 |  | 0.14 |  |
| CC12CC3CC(C(=O)N4CCC[C@H](N)C4)(C1)CC(c1ccccc1)(C3)C2 (mixture of isomers) [Example A56] | 0.075 |  |  | 0.06 | 9.09 |  | 0.107 |  |
| CC12CC3CC(C(=O)N4CCC[C@@H](N)C4)(C1)CC(c1ccccc1)(C3)C2 (mixture of isomers) [Example A57] | 0.17 |  |  | 0.22 | 7.88 |  | 0.055 |  |
| CC12CC3CC(C(=O)N[C@@H]4CCCN5CCC[C@H]45)(C1)CC(c1ccccc1)(C3)C2 (mixture of isomers) [Example A59] | 0.257 |  |  | 0.4 | 12.7 |  | 0.026 |  |
| CC12CC3CC(C(=O)NC45CCN(CC4)CC5)(C1)CC(c1ccccc1)(C3)C2 (racemic) [Example A60] | 0.12 |  |  | 0.33 | 23.1 |  | 0.035 |  |
| CCC12CC3CC(CNC4CCNCC4(C)C)(C1)CC(c1ccccc1)(C3)C2 (stereo not shown) [Example A61] | 0.75 |  |  | 0.66 | 1.24 |  | 0.8 |  |
| CCC12CC3CC(CNC4CCNCC4)(C1)CC(c1ccccc1)(C3)C2 (stereo not shown) [Example A62] | 0.5 |  |  | 0.54 | 1.62 |  | 0.9 |  |

| Structure (SMILES) | EC50 [1] [µM] | EC50 [2] [µM] | EC50 [3] [µM] | EC50 [4] [µM] | CC50 (in vitro) [µM] | EC50 [5] [µM] | EC50 ([5]; Zaire ebolavirus, Vero, 24 h) [µM] | fold more potent against Marburgvirus infection compared to the opposite enantiomer [2] [fold] |
| --- | --- | --- | --- | --- | --- | --- | --- | --- |
| CCC12CC3CC(CN[C@H]4CCN[C@@H](C)C4)(C1)CC(c1ccccc1)(C3)C2 (stereo partly shown) [Example A63] | 0.435 |  |  | 0.74 | 1.47 |  | 0.725 |  |
| CCC12CC3CC(CN[C@H]4CC[C@H](CN)CC4)(C1)CC(c1ccccc1)(C3)C2 (stereo partly shown) [Example A64] | 0.3 |  |  | 0.53 | 1.24 |  | 0.61 |  |
| CC12CC3CC(CN[C@H]4CC[C@H](N)CC4)(C1)CC(c1ccccc1)(C3)C2 (stereo partly shown) [Example A65] | 0.175 | 0.89 |  | 0.18 | 1.62 |  | 0.28 |  |
| CCC12CC3CC(CN[C@H]4CC[C@H](N)CC4)(C1)CC(c1ccccc1)(C3)C2 (stereo partly shown) [Example A66] | 0.199 | 0.97 |  | 0.49 | 4.06 |  | 0.22 |  |
| NC1CCN(CC23CC4CC(C2)CC(c2ccccc2)(C4)C3)CC1 [Example A68] | 0.28 | > 3 |  | 0.4 | 7.47 |  | 0.6 |  |
| C[C@]12CC3CC(C(=O)N4CCC(N)C5(CC5)C4)(C1)C[C@@](c1ccccc1)(C3)C2 (stereo partly shown) [Example B9] | 0.085 |  | 0.06 | 0.075 | 8.9 |  | 0.025 |  |
| C[C@]12CC3CC(C(=O)N4CCC5(CCCN5)CC4)(C1)C[C@@](c1ccccc1)(C3)C2 [Example B10] | 0.071 |  | 0.05 | 0.11 | 12.3 |  | 0.045 |  |
| C[C@]12CC3CC(C(=O)N4CC5(CC(N)C5)C4)(C1)C[C@@](c1ccccc1)(C3)C2 [Example B11] | 0.104 |  |  | 0.26 | 23.6 |  | 0.064 |  |
| CC1(C)CN(C(=O)C23CC4C[C@@](C)(C2)C[C@](c2ccccc2)(C4)C3)CC[C@H]1N [Example B12] | 0.105 |  |  | 0.2 | 13.3 |  | 0.095 |  |
| C[C@@H]1C[C@H](NC(=O)C23CC4C[C@@](C)(C2)C[C@](c2ccccc2)(C4)C3)CCN1 [Example B14] | 0.25 |  |  | 0.73 | 14.4 |  | 0.025 |  |
| CC[C@]12CC3CC(C(=O)N[C@H]4CC[C@H](N)CC4)(C1)C[C@@](c1ccccc1)(C3)C2 [Example B16] | 0.057 | 3.02 |  | 0.18 |  |  | 0.016 |  |
| C[C@]12CC3CC(CN4CCC(N)CC4)(C1)C[C@@](c1ccccc1)(C3)C2 [Example B69] | 0.279 | 0.93 |  | 0.71 | 4.67 |  | 0.429 |  |
| C[C@@]12CC3CC(C(=O)NC4CCNCC4)(C1)C[C@](c1ccccc1)(C3)C2 [Example C1] | 0.186 |  |  | 0.685 | 16.3 |  | 0.238 |  |
| C[C@@]12CC3CC(C(=O)N[C@@H]4CCNC[C@H]4F)(C1)C[C@](c1ccccc1)(C3)C2 [Example C5] | 0.109 | > 3 |  | 0.775 | 11.6 |  | 0.169 |  |
| C[C@@]12CC3CC(C(=O)N[C@H]4CCNC[C@@H]4F)(C1)C[C@](c1ccccc1)(C3)C2 [Example C6] | 0.25 | 2.98 |  | 0.48 | 12.7 |  | 0.32 |  |
| CC1(C)CN(C(=O)C23CC4C[C@](C)(C2)C[C@@](c2ccccc2)(C4)C3)CCC1N (stereo partly shown) [Example C8] | 0.123 |  |  | 0.55 | 12.4 |  | 0.097 |  |
| C[C@@]12CC3CC(C(=O)N4CCC5(CCCN5)CC4)(C1)C[C@](c1ccccc1)(C3)C2 [Example C10] | 0.085 |  | 0.18 | 0.155 | 12.7 |  | 0.1 |  |
| CC[C@@]12CC3CC(C(=O)N[C@H]4CC[C@H](N)CC4)(C1)C[C@](c1ccccc1)(C3)C2 [Example C16] | 0.388 | 2.97 |  | 0.94 |  |  | 0.353 |  |
| C[C@@]12CC3CC(C(=O)N[C@H]4CN5CCC4CC5)(C1)C[C@](c1ccccc1)(C3)C2 [Example C58] | 0.188 | 0.1 |  | 1.01 | 10.1 |  | 0.785 | 16 |
| C[C@@]12CC3CC(CN4CCC(N)CC4)(C1)C[C@](c1ccccc1)(C3)C2 [Example C69] | 0.208 | 1.14 |  | 0.31 | 3.8 |  | 0.313 |  |
